From US11040981B2, “Pyrrolotriazine compounds and methods of inhibiting TAM kinases” (Syros Pharmaceuticals, Inc., priority 2017, dated 2021)

Columns and labels:
TYRO3 = target: T1, TYRO3 (Homo sapiens, UniProt Q06418); assay: TR-FRET kinase activity assay, TYRO3; assay type: biochemical; details: ATP at Km, 60 minutes
T1 sequence (Q06418 41-890): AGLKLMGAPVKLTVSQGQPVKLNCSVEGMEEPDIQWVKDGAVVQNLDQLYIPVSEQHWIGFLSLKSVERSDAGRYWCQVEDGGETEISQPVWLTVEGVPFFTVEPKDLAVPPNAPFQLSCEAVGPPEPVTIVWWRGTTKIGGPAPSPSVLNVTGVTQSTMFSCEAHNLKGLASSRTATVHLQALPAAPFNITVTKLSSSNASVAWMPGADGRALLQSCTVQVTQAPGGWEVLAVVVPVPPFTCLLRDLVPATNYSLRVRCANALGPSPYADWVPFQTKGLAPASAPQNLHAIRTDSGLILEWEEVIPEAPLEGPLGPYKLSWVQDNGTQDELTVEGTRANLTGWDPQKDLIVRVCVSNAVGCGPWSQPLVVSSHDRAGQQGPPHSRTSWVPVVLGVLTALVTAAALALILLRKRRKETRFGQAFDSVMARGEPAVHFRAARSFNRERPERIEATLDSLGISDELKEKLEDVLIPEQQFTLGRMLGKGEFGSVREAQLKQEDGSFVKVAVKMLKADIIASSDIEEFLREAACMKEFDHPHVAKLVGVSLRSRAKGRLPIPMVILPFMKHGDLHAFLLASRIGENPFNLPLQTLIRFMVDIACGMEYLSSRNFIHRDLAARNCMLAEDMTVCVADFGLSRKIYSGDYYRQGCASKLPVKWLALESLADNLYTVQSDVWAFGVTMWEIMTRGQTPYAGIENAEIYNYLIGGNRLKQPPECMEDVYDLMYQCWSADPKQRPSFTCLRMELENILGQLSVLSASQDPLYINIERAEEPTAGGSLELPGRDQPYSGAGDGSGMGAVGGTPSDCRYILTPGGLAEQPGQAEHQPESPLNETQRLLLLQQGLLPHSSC
Method in brief: (§1)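 Recombinant human kinases, fluorescent peptide substrate, ATP at Km; 1 h RT, pH 7.5. EDTA-quenched, Eu antibody added, TR-FRET read; IC50 determined.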

MERTK = target: T2, MERTK (Homo sapiens, UniProt Q12866); assay: TR-FRET kinase activity assay, MERTK; assay type: biochemical; details: for IC50: TR-FRET activity assay, ATP at Km, 60 minutes, read-out: Mer IC50; for FLT3/Mer ratio (FLT3 IC50/Mer IC50): ratio calculated as FLT3 IC50/Mer IC50
T2 sequence (Q12866 21-999): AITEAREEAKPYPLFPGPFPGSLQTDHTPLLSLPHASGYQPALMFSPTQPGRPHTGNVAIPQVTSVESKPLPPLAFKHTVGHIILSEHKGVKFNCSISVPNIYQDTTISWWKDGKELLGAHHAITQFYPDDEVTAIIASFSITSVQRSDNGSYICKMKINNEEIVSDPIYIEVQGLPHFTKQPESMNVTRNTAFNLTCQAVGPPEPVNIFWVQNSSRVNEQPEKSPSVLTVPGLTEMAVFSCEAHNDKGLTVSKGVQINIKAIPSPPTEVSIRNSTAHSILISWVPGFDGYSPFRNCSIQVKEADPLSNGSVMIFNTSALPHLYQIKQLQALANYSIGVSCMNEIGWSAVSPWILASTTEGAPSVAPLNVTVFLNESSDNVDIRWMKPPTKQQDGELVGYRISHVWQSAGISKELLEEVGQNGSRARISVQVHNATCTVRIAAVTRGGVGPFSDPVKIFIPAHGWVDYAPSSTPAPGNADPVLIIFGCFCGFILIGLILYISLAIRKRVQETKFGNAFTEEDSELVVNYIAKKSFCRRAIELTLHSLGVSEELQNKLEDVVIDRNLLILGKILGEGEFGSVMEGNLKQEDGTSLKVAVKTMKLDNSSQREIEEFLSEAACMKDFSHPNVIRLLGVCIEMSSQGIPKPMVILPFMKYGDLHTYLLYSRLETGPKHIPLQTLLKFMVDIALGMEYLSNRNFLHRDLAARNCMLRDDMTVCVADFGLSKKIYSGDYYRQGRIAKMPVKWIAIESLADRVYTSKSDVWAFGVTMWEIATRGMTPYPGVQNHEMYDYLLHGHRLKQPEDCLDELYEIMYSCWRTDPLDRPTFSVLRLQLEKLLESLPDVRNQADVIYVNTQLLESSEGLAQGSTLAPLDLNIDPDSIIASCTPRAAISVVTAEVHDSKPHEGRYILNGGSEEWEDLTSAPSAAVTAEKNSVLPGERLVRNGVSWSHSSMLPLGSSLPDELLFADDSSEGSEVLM
Method in brief: as §1

Row | Structure (SMILES) | IC50 (TYRO3) | IC50 (MERTK) | FLT3/Mer ratio (FLT3 IC50/Mer IC50) (MERTK)
1 | COC[C@H](C)Nc1ncc2c([C@H]3CC[C@H](C(=O)N4CCN(C)CC4)CC3)cc([C@H]3CC[C@H](O)CC3)n2n1 [Compound 606] | ≤ 100 nM | ≤ 100 nM | +++ (“+++” represents a ratio of >100)
2 | COC[C@H](C)Nc1ncc2c([C@H]3CC[C@@H](C(=O)N4CCN(C)CC4)CC3)cc([C@H]3CC[C@H](O)CC3)n2n1 [Compound 607] | ≤ 100 nM | ≤ 100 nM | +++ (“+++” represents a ratio of >100)
3 | C[C@@H](CC(F)(F)F)Nc1ncc2c(-c3cnn(C(C)(C)C(=O)N4CC5(COC5)C4)c3)cc([C@H]3CC[C@H](O)CC3)n2n1 [Compound 608] | ≤ 100 nM | ≤ 100 nM | ++ (“++” represents a ratio of between 10 and 100)
4 | C[C@@H](CC(F)(F)F)Nc1ncc2c(-c3cnn(C(C)(C)C(=O)C4COC4)c3)cc([C@H]3CC[C@@](C)(O)CC3)n2n1 [Compound 609] | ≤ 100 nM | ≤ 100 nM | ++ (“++” represents a ratio of between 10 and 100)
5 | C[C@@H](CC(F)(F)F)Nc1ncc2c(-c3cnn(C(C)(C)C(=O)C4COC4)c3)cc([C@H]3CC[C@](C)(O)CC3)n2n1 [Compound 610] | ≤ 100 nM | ≤ 100 nM | ++ (“++” represents a ratio of between 10 and 100)
6 | COCC(C)Nc1ncc2c(-c3ccc(C(C)(C)c4nnc(C)o4)s3)cc(C3CCC(O)CC3)n2n1 (stereo not drawn) [Compound 611] | ≤ 100 nM | ≤ 100 nM | +++ (“+++” represents a ratio of >100)
7 | C[C@@H](COC(F)F)Nc1ncc2c(-c3cnn(C(C)(C)C(=O)N4CC5(COC5)C4)c3)cc([C@H]3CC[C@H](O)CC3)n2n1 [Compound 613] | ≤ 100 nM | ≤ 100 nM | +++ (“+++” represents a ratio of >100)
8 | COC[C@H](C)Nc1ncc2c(-c3cnn(C4COC4)c3)cc([C@H]3CC[C@H](O)C(F)(F)C3)n2n1 [Compound 614] | ≤ 100 nM | ≤ 100 nM | +++ (“+++” represents a ratio of >100)
9 | COC[C@H](C)Nc1ncc2c(-c3ccnc(C(C)(C)O)c3)cc([C@H]3CC[C@H](O)CC3)n2n1 [Compound 619] | ≤ 100 nM | ≤ 100 nM | +++ (“+++” represents a ratio of >100)

Now from value to compound:

Row | IC50 (TYRO3) | IC50 (MERTK) | FLT3/Mer ratio (FLT3 IC50/Mer IC50) (MERTK) | Structure (SMILES)
10 | ≤ 100 nM | ≤ 100 nM | +++ (“+++” represents a ratio of >100) | COC[C@H](C)Nc1ncc2c(-c3cnn(C(C)(C)C(=O)N4CCCC4)c3)cc([C@H]3CC[C@H](O)CC3)n2n1 [Compound 612]
11 | ≤ 100 nM | ≤ 100 nM | +++ (“+++” represents a ratio of >100) | CCC1(O)CCC(c2cc(-c3cnn(C4COC4)c3)c3cnc(NC(C)COC)nn23)CC1 (stereo not drawn) [Compound 615]
12 | ≤ 100 nM | ≤ 100 nM | +++ (“+++” represents a ratio of >100) | CC[C@]1(O)CC[C@@H](c2cc(-c3cnn(C4COC4)c3)c3cnc(N[C@@H](C)COC)nn32)CC1 [Compound 616]
13 | ≤ 100 nM | ≤ 100 nM | +++ (“+++” represents a ratio of >100) | COC[C@H](C)Nc1ncc2c(-c3cnn(C4COC4)c3)cc([C@H]3CC[C@](O)(C(C)C)CC3)n2n1 [Compound 617]
14 | ≤ 100 nM | ≤ 100 nM | +++ (“+++” represents a ratio of >100) | COC[C@H](C)Nc1ncc2c(-c3cnn(C4COC4)c3)cc([C@H]3CC[C@@](O)(C(C)C)CC3)n2n1 [Compound 618]
15 | ≤ 100 nM | ≤ 100 nM | +++ (“+++” represents a ratio of >100) | COC[C@H](C)Nc1ncc2c(-c3cnn(C(C)(C)C(=O)N4CCC(C)(O)C4)c3)cc([C@H]3CC[C@H](O)CC3)n2n1 (stereo partly drawn) [Compound 620]
16 | ≤ 100 nM | ≤ 100 nM | +++ (“+++” represents a ratio of >100) | COC[C@H](C)Nc1ncc2c(-c3cnn(C(C)(C)C(=O)N4CCCC(C)(O)C4)c3)cc([C@H]3CC[C@H](O)CC3)n2n1 (stereo partly drawn) [Compound 621]
